Laboratory results from patent publication US10076504B2, “Glucagon antagonists” (Ligand Pharmaceuticals, Inc., priority 2014, dated 2018).
Read-outs that look alike come from different tables or passages of the source.

How the values were obtained:
[1] = system: fasting plasma glucose; test: Single ascending dose study, pharmacodynamics; type: in vivo, human
Procedure: Oral doses of IIIa were administered to normal healthy volunteers (NHV) and subjects with type 2 diabetes mellitus (T2DM). A single center, randomized, double-blind, placebo-controlled single ascending dose study was done in both NHV (n=48) and T2DM subjects (n=8). Dose escalation only occurred after review of safety and tolerability data from previous dose levels (n=8/cohort; 2-placebo & 6-IIIa). Dosing of the T2DM cohort was initiated only after the equivalent dose had been administered to NHV and safety data had been reviewed. All subjects were administered IIIa in the morning after an overnight fast with the exception of the NHV in the 40 mg cohort. NHV subjects in the 40 mg cohort initially received IIIa in a fasted state. Following a 3 week washout period, IIIa was readministered after breakfast at 40 mg to determine the effects of food consumption on pharmacokinetics.
Formula IIIa was well-absorbed after oral administration; peak plasma concentrations were reached approximately 5 to 8 hours post dose with a long elimination half-life of about 50 hours. Such data supports, for example, once-daily dosing of Formula III. The effects of Formula IIIa on fasting and post-prandial plasma glucose, glucagon, insulin, and glucagon-like peptide-1 (GLP-1) were evaluated in NH and T2DM subjects, and a meal tolerance test (MTT) and continuous glucose monitoring (CGM) were performed in T2DM subjects. […] The decrease in glucose was most obvious in the fasting plasma glucose (FPG) levels 24 and 48 hours post-dose. The magnitude of decrease in FPG was greater in subjects with T2DM than in NH subjects.

[2] = Pharmacokinetics after oral and IV administration; type: in vivo; conditions: IV Dose 1 mg/kg, PO Dose 3 mg/kg; for AUC(0-t) / Cmax / Tmax / clearance / half-life / Vd: plasma; for Vd: read-out: VSS
Procedure: Pharmacokinetics of IIIa were evaluated after both oral and IV administration in mice, rats, dogs, and monkeys.

[3] = T2DM subjects, single dose 40 mg

Structure (SMILES): Cc1cc(C)c(-c2ccc(NC(=O)[C@H](Cc3ccc(C(=O)NCCS(=O)(=O)O)cc3)c3ccc(-c4ccc(C(C)(C)C)cc4)cc3)cc2)c(C)c1 [IIIa]
- glucose levels ([1]; NH subjects): small decreases in glucose levels approximating dose-dependency
- mean glucagon and total GLP-1 levels ([1]; NH subjects, dose-dependent up to 240 mg, 24 to 96 hours post-dose): increased
- glucose levels ([1]; T2DM subjects): lowered glucose levels
- duration of glucose suppression ([1]; T2DM subjects, single dose): continued through 48 hours
- lowering of fasting plasma glucose [1, 3]: 50 mg/dL
- lowering of fasting plasma glucose, placebo adjusted [1, 3]: 57 mg/dL
- changes in active GLP-1 or insulin levels ([1]; all dose groups, single dose): did not generate a consistent trend
- duration of glucose suppression ([1]; normal healthy volunteers): continued through 48 hours
- fasting plasma glucose ([1]; normal healthy volunteers, single dose 2 to 480 mg): lowered fasting plasma glucose
- 24-hour glucose AUC (continuous glucose monitoring) ([1]; subjects with T2DM): reduction
- mean glucagon and total GLP-1 levels ([1]; subjects with T2DM, compared to placebo, 24 to 72 hours post-dose): increased compared to placebo treatment
- F ([2]; Dog): 54%
- F ([2]; Monkey): 21%
- F ([2]; Mouse): 47%
- F ([2]; Rat): 36%
- AUC(0-t) ([2]; Dog): 225000 ng·h/mL
- Cmax ([2]; Dog): 10900 ng/mL
- Tmax ([2]; Dog): 4 h
- clearance ([2]; Dog): 0.07 mL/min/kg
- half-life ([2]; Dog): 46 h
- Vd ([2]; Dog): 0.24 L/kg
- AUC(0-t) ([2]; Monkey): 9850 ng·h/mL
- Cmax ([2]; Monkey): 1250 ng/mL
- Tmax ([2]; Monkey): 4 h
- clearance ([2]; Monkey): 1.13 mL/min/kg
- half-life ([2]; Monkey): 16.2 h
- Vd ([2]; Monkey): 0.16 L/kg
- AUC(0-t) ([2]; Mouse): 16300 ng·h/mL
- Cmax ([2]; Mouse): 1710 ng/mL
- Tmax ([2]; Mouse): 6 h
- clearance ([2]; Mouse): 22.2 mL/min/kg
- half-life ([2]; Mouse): 5.9 h
- Vd ([2]; Mouse): 0.62 L/kg
- AUC(0-t) ([2]; Rat): 7600 ng·h/mL
- Cmax ([2]; Rat): 1330 ng/mL
- Tmax ([2]; Rat): 2 h
- clearance ([2]; Rat): 2.33 mL/min/kg
- half-life ([2]; Rat): 10.9 h
- Vd ([2]; Rat): 0.3 L/kg
